Laboratory results as given in ChEMBL document CHEMBL1201862, “PubChem BioAssay data set” (2004).
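Protocol summary: plate cells (96-well), add compound at 5 concentrations, incubate 48 h, interpolate endpoints linearly. GI50 = concentration required for 50% inhibition of growth.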 Active and inactive are the calls of the source. Rule as the data show it: active = GI50 up to about 1.1 µM and inactive = higher.

Assays:
Experiment in all cases: NCI tumour cell line growth inhibition, 48 h
786-0 = system: 786-0
CAKI-1 = system: CAKI-1
COLO 205 = system: COLO 205
DU-145 = system: DU-145
HCC 2998 = system: HCC 2998
HCT-15 = system: HCT-15
HL-60 = system: HL-60
HOP-92 = system: HOP-92
HT-29 = system: HT-29
IGROV-1 = system: IGROV-1
LOX IMVI = system: LOX IMVI
LXFL 529 = system: LXFL 529
MDA-N = system: MDA-N
MOLT-4 = system: MOLT-4
NCI-H226 = system: NCI-H226
NCI/ADR-RES = system: NCI/ADR-RES
RXF 393 = system: RXF 393
T47D = system: T47D
TK-10 = system: TK-10
UACC-62 = system: UACC-62

Compound | GI50 (786-0) | GI50 (CAKI-1) | GI50 (COLO 205) | GI50 (DU-145) | GI50 (HCC 2998) | GI50 (HCT-15) [nM] | GI50 (HL-60) | GI50 (HOP-92) | GI50 (HT-29) | GI50 (IGROV-1) | GI50 (LOX IMVI) | GI50 (LXFL 529) | GI50 (MDA-N) | GI50 (MOLT-4) | GI50 (NCI-H226) | GI50 (NCI/ADR-RES) | GI50 (RXF 393) | GI50 (T47D) | GI50 (TK-10) | GI50 (UACC-62)
Cn1c2ccccc2c2cc(-c3ccccc3)c3c(c21)C(=O)C=CC3=O | 8150 nM (inactive) | 18300 nM (inactive) | 17500 nM (inactive) | 82800 nM (inactive) | 34100 nM (inactive) | 15200 | 4520 nM (inactive) | 14500 nM (inactive) | 17500 nM (inactive) | 22800 nM (inactive) | 18600 nM (inactive) | 6680 nM (inactive) | 19400 nM (inactive) | 3590 nM (inactive) | 15200 nM (inactive) | 41300 nM (inactive) | 15800 nM (inactive) | 9550 nM (inactive) | 17100 nM (inactive) | 19300 nM (inactive)
COc1ccc(C[C@@H]2NC[C@@H](O)[C@@H]2OC(C)=O)cc1 | 21.9 nM (active) | 25.1 nM (active) | 10.2 nM (active) | 19.1 nM (active) | 20.8 nM (active) | 17.1 | 3.74 nM (active) | 6.18 nM (active) | 19.7 nM (active) | 43.5 nM (active) | 4.03 nM (active) | 1320 nM (inactive) | 21.2 nM (active) | 10.5 nM (active) | 35.8 nM (active) | 0.1 nM (active) | 6.41 nM (active) | 22.7 nM (active) | 31.2 nM (active) | 15 nM (active)
